From patent publication US6962941B2, “Tryptase inhibitors” (Altana Pharma AG, priority 2001, dated 2005)

Molecular target: human tryptase
Experiment: Inhibition of human tryptase (apparent dissociation constant, tos-Gly-Pro-Arg-pNA cleavage)
Assay type: biochemical
Details: pKiapp = -log Kiapp (mol/l), in the presence of substrate, heparin 0.1-50 μg/ml
Description: The documented pathophysiological effects of mast cell tryptase are brought about directly by the enzymatic activity of the protease. Accordingly, they are reduced or blocked by inhibitors which inhibit the enzymatic activity of tryptase. A suitable measure of the affinity of a reversible inhibitor for the target protease is the equilibrium dissociation constant Ki of the enzyme/inhibitor complex. This value of Ki can be determined via the influence of the inhibitor on the tryptase-induced cleavage of a chromogenic peptide-p-nitroanilide substrate or of a fluorogenic peptide-aminomethylcoumarin substrate.
The dissociation constants for the tryptase/inhibitor complexes are determined under equilibrium conditions in accordance with the general proposals of Bieth (Bieth J. G., Pathophysiological Interpretation of kinetic constants of protease inhibitors, Bull. Europ. Physiopath. Resp. 16:183-195, 1980) and the methods of Sommerhoff et al. (Sommerhoff C. P. et al., A Kazal-type inhibitor of human mast cell tryptase: Isolation from the medical leech Hirudo medicinalis, characterization, and sequence analysis, Biol. Chem. Hoppe-Seyler 375: 685-694, 1994).
Human tryptase is prepared pure from lung tissue or is prepared by recombination; the specific activity of the protease which has been determined by titration is normally more than 85% of the theoretical value. […]

pKiapp: 8.35
SMILES: COC(=O)C1CC(NC(=O)OCC#CCOC(=O)NC2CC(C(=O)OC)N(C(=O)CCc3cccc(CN)c3)C2)CN1C(=O)CCc1cccc(CN)c1.Cl.Cl (stereo not shown) [Compound 1, 1,4-Bis-{N-[3-(3-aminomethylphenylproplonyl)-2-methoxycarbonylpyrrolidin-4-yl]aminocarbonyloxy}-2-butyne dihydrochloride]
